Each structure is given as a SMILES string. pEC50: −log10 of the molar value.

Chain of GLP-1 Receptor (P43220 24-463, species assumed): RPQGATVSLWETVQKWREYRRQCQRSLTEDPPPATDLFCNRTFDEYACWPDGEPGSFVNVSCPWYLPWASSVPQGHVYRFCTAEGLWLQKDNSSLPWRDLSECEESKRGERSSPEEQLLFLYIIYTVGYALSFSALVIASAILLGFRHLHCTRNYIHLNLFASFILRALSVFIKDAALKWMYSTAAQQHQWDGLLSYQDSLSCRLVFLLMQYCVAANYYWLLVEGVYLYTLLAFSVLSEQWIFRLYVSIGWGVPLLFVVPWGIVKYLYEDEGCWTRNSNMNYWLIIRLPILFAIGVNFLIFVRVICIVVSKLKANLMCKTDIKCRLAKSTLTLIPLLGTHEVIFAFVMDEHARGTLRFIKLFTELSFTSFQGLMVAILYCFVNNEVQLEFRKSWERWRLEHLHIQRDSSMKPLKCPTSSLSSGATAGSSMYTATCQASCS

This experiment concerns the target GLP-1 Receptor (Homo sapiens, UniProt P43220). Kind of experiment: GLP-1R agonist cAMP stimulation assay (HEK293/GLP1R/CRE-LUC cells, cAMP dynamic 2 Kit). The conditions noted are these: HEK293/CRE-Luc cell line stably expressing the GLP-1 Receptor, 30 min at 37° C. The experiment is classed as cell-based. Summed up:
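cAMP measured by HTRF competition (d2-labelled cAMP with cryptate antibody, 1 h, room temperature, protected from light). Before that, GLP1R/CRE-Luc HEK293 cells (1000/well) were exposed for 30 min at 37 °C to half-log compound dilutions in DPBS containing IBMX 0.5 mM and BSA 0.1%.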
For the molecule `CO[C@@H](C)Cn1c(CN2CCC(c3cccc4c3OC(C)(c3ccc(Cl)cn3)O4)CC2)nc2cc(-c3noc(=O)[nH]3)ncc21` (stereo partly drawn) [Compound 437a, 3-[2-({4-[2-(5-chloropyridin-2-yl)-2-methyl-2H-1,3-benzodioxol-4-yl]piperidin-1-yl}methyl)-3-[(2S)-2-methoxypropyl]-3H-imidazo[4,5-c]pyridin-6-yl]-4,5-dihydro-1,2,4-oxadiazol-5-one], the pEC50 (in general, the EC50 on a negative log10 scale, so that one unit is a factor of ten) was 8.57.
On to `O=c1[nH]c(-c2cc3nc(CN4CCC(c5ccc(F)c(OCc6ccc(Cl)cc6F)n5)CC4)n(C[C@@H]4CCO4)c3cn2)no1` [Compound 438a, 3-{2-[(4-{6-[(4-chloro-2-fluorophenyl)methoxy]-5-fluoropyridin-2-yl}piperidin-1-yl)methyl]-3-{[(2S)-oxetan-2-yl]methyl}-3H-imidazo[4,5-c]pyridin-6-yl}-4,5-dihydro-1,2,4-oxadiazol-5-one], for which the pEC50 is 10.59. This pEC50 is 2.02 log units higher than that of the molecule before.
`O=c1[nH]c(-c2cc3nc(CN4CCN(c5ccc(F)c(OCc6ccc(Cl)cc6F)c5)CC4)n(C[C@@H]4CCO4)c3cn2)no1` [Compound 439a, 3-{2-[(4-{3-[(4-chloro-2-fluorophenyl)methoxy]-4-fluorophenyl}piperazin-1-yl)methyl]-3-{[(2S)-oxetan-2-yl]methyl}-3H-imidazo[4,5-c]pyridin-6-yl}-4,5-dihydro-1,2,4-oxadiazol-5-one] had a pEC50 of 8.64.
`C[C@]1(c2ccc(Cl)cc2F)Oc2cccc(C3CCN(Cc4nc5cc(-c6nnc[nH]6)ncc5n4C[C@@H]4CCO4)CC3)c2O1` [Compound 440a, 4-[(2S)-2-(4-chloro-2-fluorophenyl)-2-methyl-2H-1,3-benzodioxol-4-yl]-1-[(3-{[(2S)-oxetan-2-yl]methyl}-6-(4H-1,2,4-triazol-3-yl)-3H-imidazo[4,5-c]pyridin-2-yl)methyl]piperidine] showed a pEC50 of 10.40. This pEC50 lies 1.76 log units higher than the previous one.
`CC1(c2ccc(Cl)cc2F)Oc2cc(F)cc(C3CCN(Cc4nc5cc(-c6nnc(C(F)(F)F)[nH]6)ncc5n4C[C@@H]4CCO4)CC3)c2O1` (stereo partly drawn) [Compound 441a, 4-[2-(4-chloro-2-fluorophenyl)-6-fluoro-2-methyl-2H-1,3-benzodioxol-4-yl]-1-[(3-{[(2S)-oxetan-2-yl]methyl}-6-[5-(trifluoromethyl)-4H-1,2,4-triazol-3-yl]-3H-imidazo[4,5-c]pyridin-2-yl)methyl]piperidine] had a pEC50 of 10.60. Against the preceding molecule, the pEC50 is 0.20 log units higher.
`CO[C@H](C)Cn1c(CN2CCC(c3cccc4c3O[C@@](C)(c3ccc(C#N)cc3F)O4)CC2)nc2cc(-c3nnc(C(F)(F)F)[nH]3)ncc21` [Compound 442a, 3-fluoro-4-[(2S)-4-[1-({3-[(2R)-2-methoxypropyl]-6-[5-(trifluoromethyl)-4H-1,2,4-triazol-3-yl]-3H-imidazo[4,5-c]pyridin-2-yl}methyl)piperidin-4-yl]-2-methyl-2H-1,3-benzodioxol-2-yl]benzonitrile]: the pEC50 was 10.48.
On to `CO[C@@H](C)Cn1c(CN2CCC(c3cccc4c3O[C@@](C)(c3ccc(C#N)cc3F)O4)CC2)nc2cc(-c3noc(=O)[nH]3)ncc21` [Compound 443a, 3-fluoro-4-[(2S)-4-[1-({3-[(2S)-2-methoxypropyl]-6-(5-oxo-4,5-dihydro-1,2,4-oxadiazol-3-yl)-3H-imidazo[4,5-c]pyridin-2-yl}methyl)piperidin-4-yl]-2-methyl-2H-1,3-benzodioxol-2-yl]benzonitrile], for which the pEC50 is 9.55.
Molecule `C[C@]1(c2ccc(Cl)cc2F)Oc2cccc(C3CCN(Cc4nc5cc(-c6nnc(C#N)[nH]6)ncc5n4C[C@@H]4CCO4)CC3)c2O1` [Compound 444a, 5-[2-({4-[(2S)-2-(4-chloro-2-fluorophenyl)-2-methyl-2H-1,3-benzodioxol-4-yl]piperidin-1-yl}methyl)-3-{[(2S)-oxetan-2-yl]methyl}-3H-imidazo[4,5-c]pyridin-6-yl]-4H-1,2,4-triazole-3-carbonitrile] gave a negative logarithm of the EC50 (pEC50) of 11.43. This pEC50 lies 1.88 log units higher than the previous one.
On to `CO[C@@H](C)Cn1c(CN2CCC(c3cccc4c3OC(C)(c3ccc(Cl)cn3)O4)CC2)nc2cc(-c3nnc(C(F)(F)F)[nH]3)ncc21` (stereo partly drawn) [Compound 445a, 5-chloro-2-{4-[1-({3-[(2S)-2-methoxypropyl]-6-[5-(trifluoromethyl)-4H-1,2,4-triazol-3-yl]-3H-imidazo[4,5-c]pyridin-2-yl}methyl)piperidin-4-yl]-2-methyl-2H-1,3-benzodioxol-2-yl}pyridine], for which the pEC50 is 8.70.
The molecule `CC1(c2ccc(Cl)cc2)Oc2cccc(C3CCN(Cc4nc5cc(-c6nnc(C(F)(F)F)[nH]6)ccc5n4CC4(C#N)CC4)CC3)c2O1` (centres unmarked) [Compound 446, 1-{[2-({4-[2-(4-chlorophenyl)-2-methyl-2H-1,3-benzodioxol-4-yl]piperidin-1-yl}methyl)-5-[5-(trifluoromethyl)-4H-1,2,4-triazol-3-yl]-1H-1,3-benzodiazol-1-yl]methyl}cyclopropane-1-carbonitrile] had a pEC50 of 9.92. Against the preceding molecule, the pEC50 is 1.22 log units higher.
The molecule `C[C@]1(c2ccc(C#N)cc2F)Oc2cccc(C3CCN(Cc4nc5cc(-c6nnc(C(F)(F)F)[nH]6)nnc5n4C[C@@H]4CCO4)CC3)c2O1` [Compound 447a, 3-fluoro-4-[(2S)-2-methyl-4-{1-[(7-{[(2S)-oxetan-2-yl]methyl}-3-[5-(trifluoromethyl)-4H-1,2,4-triazol-3-yl]-7H-imidazo[4,5-c]pyridazin-6-yl)methyl]piperidin-4-yl}-2H-1,3-benzodioxol-2-yl]benzonitrile] had a negative logarithm of the EC50 (pEC50) of 10.72.
For `C[C@]1(c2ccc(Cl)cc2F)Oc2cccc(C3CCN(Cc4nc5cc(-c6nnc(C#N)[nH]6)nnc5n4C[C@@H]4CCO4)CC3)c2O1` [Compound 448a, 5-[6-({4-[(2S)-2-(4-chloro-2-fluorophenyl)-2-methyl-2H-1,3-benzodioxol-4-yl]piperidin-1-yl}methyl)-7-{[(2S)-oxetan-2-yl]methyl}-7H-imidazo[4,5-c]pyridazin-3-yl]-4H-1,2,4-triazole-3-carbonitrile], the pEC50 was 10.96.
In the case of `C[C@]1(c2ccc(Cl)cn2)Oc2cccc(C3CCN(Cc4nc5cc(-c6nnn[nH]6)ncc5n4C[C@@H]4CCO4)CC3)c2O1` [Compound 449a, 5-chloro-2-[(2S)-2-methyl-4-{1-[(3-{[(2S)-oxetan-2-yl]methyl}-6-(1H-1,2,3,4-tetrazol-5-yl)-3H-imidazo[4,5-c]pyridin-2-yl)methyl]piperidin-4-yl}-2H-1,3-benzodioxol-2-yl]pyridine], the pEC50 is 10.80.
Then `CC1(c2ccc(Cl)cn2)Oc2cccc(C3CCN(Cc4nc5cc(-c6nnn[nH]6)ncc5n4C[C@@H]4CCO4)CC3)c2O1` (stereo partly drawn) [Compound 450a, 5-chloro-2-(2-methyl-4-{1-[(3-{[(2S)-oxetan-2-yl]methyl}-6-(1H-1,2,3,4-tetrazol-5-yl)-3H-imidazo[4,5-c]pyridin-2-yl)methyl]piperidin-4-yl}-2H-1,3-benzodioxol-2-yl)pyridine], with 10.21; and `C[C@]1(c2ccc(Cl)cn2)Oc2cccc(C3CCN(Cc4nc5cc(-c6nnn[nH]6)cnc5n4C[C@@H]4CCO4)CC3)c2O1` [Compound 451a, 5-chloro-2-[(2S)-2-methyl-4-{1-[(3-{[(2S)-oxetan-2-yl]methyl}-6-(1H-1,2,3,4-tetrazol-5-yl)-3H-imidazo[4,5-b]pyridin-2-yl)methyl]piperidin-4-yl}-2H-1,3-benzodioxol-2-yl]pyridine], with 9.68; and `CO[C@H](C)Cn1c(CN2CCC(c3cccc4c3O[C@@](C)(c3ccc(Cl)cc3F)O4)CC2)nc2cc(-c3nnc(C(F)(F)F)[nH]3)nnc21` [Compound 452a, 4-[(2S)-2-(4-chloro-2-fluorophenyl)-2-methyl-2H-1,3-benzodioxol-4-yl]-1-({7-[(2R)-2-methoxypropyl]-3-[5-(trifluoromethyl)-4H-1,2,4-triazol-3-yl]-7H-imidazo[4,5-c]pyridazin-6-yl}methyl)piperidine], with 9.85.
In turn, `Cc1cc(=O)[nH]c(-c2cc3nc(CN4CCC(c5cccc(OCc6ccc(Cl)cc6F)n5)CC4)n(C[C@@H]4CCO4)c3cn2)n1` [Compound 453a, 2-{2-[(4-{6-[(4-chloro-2-fluorophenyl)methoxy]pyridin-2-yl}piperidin-1-yl)methyl]-3-{[(2S)-oxetan-2-yl]methyl}-3H-imidazo[4,5-c]pyridin-6-yl}-6-methyl-3,4-dihydropyrimidin-4-one] gave a pEC50 of 8.72.
Take `CO[C@@H](C)Cn1c(CN2CCC(c3cccc4c3O[C@@](C)(c3ccc(C#N)cc3F)O4)CC2)nc2cc(-c3nnc(C(F)(F)F)[nH]3)ncc21` [Compound 454a, 3-fluoro-4-[(2S)-4-[1-({3-[(2S)-2-methoxypropyl]-6-[5-(trifluoromethyl)-4H-1,2,4-triazol-3-yl]-3H-imidazo[4,5-c]pyridin-2-yl}methyl)piperidin-4-yl]-2-methyl-2H-1,3-benzodioxol-2-yl]benzonitrile]: the pEC50 was 9.77.
`CO[C@H](C)Cn1c(CN2CCC(c3cccc4c3O[C@@](C)(c3ccc(Cl)cn3)O4)CC2)nc2cc(-c3nnc(C(F)(F)F)[nH]3)ncc21` [Compound 455a, 5-chloro-2-[(2S)-4-[1-({3-[(2R)-2-methoxypropyl]-6-[5-(trifluoromethyl)-4H-1,2,4-triazol-3-yl]-3H-imidazo[4,5-c]pyridin-2-yl}methyl)piperidin-4-yl]-2-methyl-2H-1,3-benzodioxol-2-yl]pyridine] had a pEC50 of 9.92.
Then `Fc1cc(Cl)ccc1COc1cc(N2CCN(Cc3nc4cc(-c5nnc(C(F)(F)F)[nH]5)ncc4n3C[C@@H]3CCO3)CC2)ccc1F` [Compound 456a, 1-{3-[(4-chloro-2-fluorophenyl)methoxy]-4-fluorophenyl}-4-[(3-{[(2S)-oxetan-2-yl]methyl}-6-[5-(trifluoromethyl)-4H-1,2,4-triazol-3-yl]-3H-imidazo[4,5-c]pyridin-2-yl)methyl]piperazine], with 10.07.
